Measured values taken from patent US20190029989A1, “BOWEL CARE USING IONTOPHORESIS” (priority 2016, published 2019).

Assays:
Type in all cases: in vivo, human
Persons with SCI [1] = assay: Airway resistance by forced oscillation technique after IV bolus (Example 3); settings: IV bolus 2 mg neostigmine
Protocol: (§1) Thirteen (13) persons with SCI (5 quadriplegics, 8 paraplegics) with a mean age of 46 years (range 25-69) and mean duration of injury of 16 years (range 1-31) were treated. None of the subjects had known heart disease and/or history of arrhythmias.
(§2) On separate days, subjects were given by IV bolus either (i) 2 mg neostigmine alone, (ii) a combination of 2 mg neostigmine and 0.4 mg glycopyrrolate, or (iii) normal saline. Subjects were blinded to the type of infusion being delivered. The effect of these infusions on bowel evacuation was assessed semi-quantitatively on a scale of 0 (no evacuation) to 4+(complete evacuation) using video fluoroscopy after rectal instillation of a barium-oatmeal paste having a consistency similar to that of stool. Blood pressure, heart rate and other vital signs were monitored in each subject. In addition, airway resistances were determined in each subject using the forced oscillation technique (as described, for example, in Goldman, Pulm. Pharmacol. Ther., 14(5):341-350, 2001). Total airway resistance was determined using 5 Hz forced oscillations, and central airway resistance was determined using 20 Hz forced oscillations.

Persons with SCI [2] = assay: Heart rate and blood pressure monitoring after IV bolus (Example 3); settings: IV bolus 2 mg neostigmine alone or with 0.4 mg glycopyrrolate
Protocol: as §1, §2

Persons with SCI [3] = assay: Bowel evacuation score by video fluoroscopy after IV bolus in thirteen subjects (Example 3); settings: IV bolus 2 mg neostigmine alone or with 0.4 mg glycopyrrolate
Protocol: as §1, §2
This response received a 0 (zero) bowel evacuation score. FIGS. 1B-1E show progressively increasing bowel evacuation responses in different subjects. The responses in FIGS. 1B-1E correspond to bowel evacuation scores of 1+, 2+, 3+, and 4+, respectively.

Structure (SMILES): CN(C)C(=O)Oc1cccc([N+](C)(C)C)c1 [neostigmine]
- total airway resistance, increase over baseline (Persons with SCI [1]; 5 Hz forced oscillations): approximately 25.5%
- central airway resistance, increase over baseline (Persons with SCI [1]; 20 Hz forced oscillations): approximately 18.4%
- change in blood pressure (Persons with SCI [2]): No change
- mean lowest heart rate measured (Persons with SCI [2]; p=0.02): about 49 BMP
- subjects with prompt and complete evacuation (Persons with SCI [3]): 57%
- time of evacuation post infusion (mean) (Persons with SCI [3]): 11 min
- mean bowel evacuation score (Persons with SCI [3]; scale 0 (no evacuation) to 4+ (complete evacuation), thirteen subjects): about 2.29
